Assay: xn = mol fraction of the nth substance listed
Conditions: 100 kPa

CCOCCOCCOCCO + CCCC[n+]1ccn(C)c1.F[P-](F)(F)(F)(F)F
speed of sound [m/s]
Conditions	x2 = 0.0558	x2 = 0.1123	x2 = 0.2121	x2 = 0.3079	x2 = 0.4014	x2 = 0.5002	x2 = 0.6006	x2 = 0.7035	x2 = 0.8015	x2 = 0.9075
288.15 K	–	1474.2	–	1486.2	1487.1	1485	1481.8	1478.4	1469.4	1467.9
293.15 K	1448.3	1457	1466.8	1470.5	1472.2	1470.8	1468.1	–	–	–
298.15 K	1430.9	1440	1450.5	1455	1457.3	–	1454.5	1452.5	1444.6	–
303.15 K	1414.1	1423.2	1434.3	1439.6	1442.5	1442.7	1441.2	1439.1	–	1431.2
308.15 K	1397.3	1406.5	1418.1	1424.2	1427.7	–	1427.8	1426.1	1420.7	1419.5
313.15 K	–	–	1402.2	1409	1413.1	1415	1414.5	1413.5	–	1408
318.15 K	1363.8	1373.6	1386.2	1393.8	1398.8	1401.1	1401.5	1400.7	1397.8	1396.6
